Experimental data as given in ChEMBL document CHEMBL1146710, “Discovery of a novel series of DHODH inhibitors by a docking procedure and QSAR refinement” (Bioorg Med Chem Lett, 2004).

Target: Dihydroorotate dehydrogenase (quinone), mitochondrial (Homo sapiens, UniProt Q02127)
Sequence (Q02127 whole entry): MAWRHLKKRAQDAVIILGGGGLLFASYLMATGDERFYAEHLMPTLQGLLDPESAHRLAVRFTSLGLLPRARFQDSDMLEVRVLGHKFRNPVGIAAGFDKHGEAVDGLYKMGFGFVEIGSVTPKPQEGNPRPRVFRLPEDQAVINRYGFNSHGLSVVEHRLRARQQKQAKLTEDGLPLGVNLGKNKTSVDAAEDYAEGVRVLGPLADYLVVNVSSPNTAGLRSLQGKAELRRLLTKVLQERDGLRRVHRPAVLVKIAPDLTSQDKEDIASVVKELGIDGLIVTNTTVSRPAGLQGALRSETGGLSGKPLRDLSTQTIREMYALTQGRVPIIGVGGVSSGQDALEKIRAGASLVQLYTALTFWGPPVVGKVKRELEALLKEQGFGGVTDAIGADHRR
Description: In vitro inhibitory activity against human dihydroorotate dehydrogenase (DHODH)

| SMILES | IC50 [nM] |
| --- | --- |
| O=C(O)C1=C(C(=O)Nc2ccc(-c3cccc(OC(F)(F)F)c3)cc2Cl)CCC1 | 290 |
| O=C(O)C1=C(C(=O)Nc2c(F)c(F)c(-c3cccc(OC(F)(F)F)c3)c(F)c2F)CCC1 | 7 |
| CN(C)c1ccc(-c2cc(F)c(NC(=O)C3=C(C(=O)O)CCC3)c(F)c2)cc1 | 610 |
| O=C(O)C1=C(C(=O)Nc2ccc(-c3cccc(OC(F)(F)F)c3)cc2F)CCC1 | 280 |
| Cc1cc(-c2cccc(OC(F)(F)F)c2)ccc1NC(=O)C1=C(C(=O)O)CCC1 | 150 |
| O=C(O)C1=C(C(=O)Nc2ccc(-c3ccc(Br)cc3)cc2Cl)CCC1 | 2900 |
| COc1ccccc1-c1c(F)c(F)c(NC(=O)C2=C(C(=O)O)CCC2)c(F)c1F | 8 |
| O=C(O)C1=C(C(=O)Nc2ccc(-c3cccc(OC(F)(F)F)c3)c(Cl)c2)CCC1 | 20 |
| O=C(O)C1=C(C(=O)Nc2ccc(-c3cccc4ccccc34)cc2C(F)(F)F)CCC1 | 180 |
| O=C(O)C1=C(C(=O)Nc2c(F)cc(-c3cccc(OC(F)(F)F)c3)cc2F)CCC1 | 33 |
| O=C(O)C1=C(C(=O)Nc2ccc(-c3ccc(OC(F)(F)F)cc3)cc2F)CCC1 | 5700 |
| O=C(O)C1=C(C(=O)Nc2ccc(-c3cccc(OC(F)(F)F)c3)cc2[N+](=O)[O-])CCC1 | 390 |
| O=C(O)C1=C(C(=O)Nc2ccc(-c3ccccc3)cc2)CCC1 | 410 |

More lines, in order of falling IC50, values ahead:

| IC50 [nM] | SMILES |
| --- | --- |
| 8400 | COc1ccc(-c2ccc(NC(=O)C3=C(C(=O)O)CCC3)c(Cl)c2)cc1 |
| 1700 | COc1ccc(-c2ccc(NC(=O)C3=C(C(=O)O)CCC3)c(F)c2)cc1 |
| 840 | O=C(O)C1=C(C(=O)Nc2ccc(-c3cccc(OC(F)(F)F)c3)cc2C(F)(F)F)CCC1 |
| 735 | O=C(O)C1=C(C(=O)Nc2ccc(-c3ccc(Br)cc3)cc2F)CCC1 |
| 610 | O=C(O)C1=C(C(=O)Nc2ccc(-c3cccc(O)c3)cc2F)CCC1 |
| 370 | N#Cc1cc(-c2cccc(OC(F)(F)F)c2)ccc1NC(=O)C1=C(C(=O)O)CCC1 |
| 310 | COc1ccccc1-c1ccc(NC(=O)C2=C(C(=O)O)CCC2)c(Cl)c1 |
| 225 | COc1cc(-c2ccccc2Cl)ccc1NC(=O)C1=C(C(=O)O)CCC1 |
| 170 | COc1cccc(-c2ccc(NC(=O)C3=C(C(=O)O)CCC3)c(OC)c2)c1 |
| 90 | COc1ccc(-c2cc(F)c(NC(=O)C3=C(C(=O)O)CCC3)c(F)c2)c(OC)c1 |
| 80 | CC(C)(C)c1ccc(-c2ccc(NC(=O)C3=C(C(=O)O)CCC3)cc2Cl)cc1 |
| 70 | O=C(O)C1=C(C(=O)Nc2ccc(-c3ccc(Br)cc3)c(Cl)c2)CCC1 |
| 50 | CN(C)c1ccc(-c2ccc(NC(=O)C3=C(C(=O)O)CCC3)cc2Cl)cc1 |
| 45 | O=C(O)C1=C(C(=O)Nc2c(F)cc(-c3ccccc3F)cc2F)CCC1 |
| 18 | O=C(O)C1=C(C(=O)Nc2c(F)cc(-c3ccccc3Cl)cc2F)CCC1 |
| 17 | CCOc1cccc(-c2cc(F)c(NC(=O)C3=C(C(=O)O)CCC3)c(F)c2)c1 |
